Laboratory results published in patent publication US10420798B2, “Method for treating lung injury and/or diseases related to lung injury” (TAIWAN MITOCHONDRION APPLIED TECHNOLOGY CO., LTD, priority 2014, dated 2019).

Columns and labels:
[1] = tested on: rat model of acute respiratory distress syndrome; assay: albumin in BAL fluid (SDS-PAGE, Coomassie Blue); assay type: in vivo; conditions: ARDS rats; doses of Example 5
Procedure: (§1) A total of forty (40) specific pathogen free (SPF) adult male SD rats, each weighing 350-400 g (Charles River Technology, BioLASCO Biotechnology Co., Ltd., Taiwan) were used in the examples. The SD rats were randomly divided into 5 groups: the first group was the normal control group; the second group was the rat model of acute respiratory distress syndrome; the third group was the rat model of acute respiratory distress syndrome intraperitoneally injected with melatonin, with each dose of 50 mg per kilogram, at the 6th and the 24th hour after breathing pure oxygen; the fourth group was the rat model of acute respiratory distress syndrome intravenously injected mitochondria, with a dose of 1500 μg per rat, at the 6th hour after breathing pure oxygen; the fifth group was the rat model of acute respiratory distress syndrome administered melatonin and mitochondria in the same manners, frequency, and doses as those of the third group and the fourth group, respectively.
(§2) BAL fluid was obtained from rats in each group by bronchoalveolar lavage (BAL). SDS-PAGE and Coomassie Blue staining were used to detect the concentration of albumin in the BAL fluid of each group, and the results are shown in FIG. 11. Furthermore, the number of MPO+, CD40+, and CD11b/c+ cells in the BAL fluid of each group was calculated by flow cytometry.

[2] = tested on: rat model of acute respiratory distress syndrome; assay: lung sections: immunofluorescence and transmission electron microscopy of mitochondria; assay type: in vivo; conditions: compared with second group (ARDS)
Procedure: as §1
The left lungs of rats in each group were inflated with constant airway pressure (15-20 mmHg) and embedded with OCT (Tissue-Tek) for immunohistochemical staining. The right lungs of rats in each group were fixed with 4% paraformaldehyde and 0.1% glutaraldehyde phosphate buffer solution, then embedded in paraffin, and stained with hematoxylin and eosin. […]

[3] = tested on: rat model of acute respiratory distress syndrome; assay: immunostaining of lung sections for F4/80, γ-H2AX, Cx43, heme oxygenase-1; assay type: in vivo; conditions: positive cells per HPF 400×; ARDS rats
Procedure: as §1
The paraffin sections of the lung tissue of each group were rehydrated with 3% hydrogen peroxide for 30 minutes, followed by the addition of a high-performance Immuno-Block reagent (BioSB) at room temperature for 30 minutes. The sections were then treated with the specific primary antibody of the following proteins, respectively: F4/80 (1:100, Abcam), γ-H2AX (1:500, Abcam), heme oxygenase-1 (HO-1; 1:2000, Abcam), and Cx43. Immunohistochemical staining was performed on the sections of the lung tissue of each group to observe the expression of F4/80, γ-H2AX, heme oxygenase-1, and Cx43 in cells. In addition, the expression of the proteins mentioned above in the lung tissue sections of each group was quantified, and the results are shown in FIG. 20 to FIG. 23. The red fluorescence represents the exogenous mitochondria labeled by mito-tracker, and the green fluorescent represents the mitochondria within the lungs. […]

[4] = tested on: rat model of acute respiratory distress syndrome; assay: arterial oxygen saturation in rat model of acute respiratory distress syndrome; assay type: in vivo; conditions: ARDS rats; melatonin 50 mg/kg i.p. at 6th and 24th hour; mitochondria 1500 μg per rat i.v. at 6th hour
Procedure: as §1
Rats in each group in Example 5 were anesthetized. Arterial blood was taken from the carotid arteries of rats in each group, and the oxygen saturation of the blood samples was analyzed.
The rat model of acute respiratory distress syndrome was divided into two groups. One group was given 750 μg of mitochondria per rat, and the other group was given 1500 μg of mitochondria per rat. […]

[5] = tested on: rat model of acute respiratory distress syndrome; assay: lung histology (hematoxylin and eosin): alveolar sacs and crowded area; assay type: in vivo; conditions: per high power field 100×; ARDS rats; doses of Example 5
Description: (§3) A total of forty (40) specific pathogen free (SPF) adult male SD rats, each weighing 350-400 g (Charles River Technology, BioLASCO Biotechnology Co., Ltd., Taiwan) were used in the examples. […]
The integral of the crowded area in the lung tissue of rats in each group was further calculated by the following criteria: 0 represents no overlap; 1 represents less than 15% of crowded area in each of the high magnification fields; 2 represents 15-25% of crowded area in each of the high magnification fields; 3 represents 25-50% of crowded area in each of the high magnification fields; 4 represents 50-75% of crowded area in each of the high magnification fields; 5 represents 75-100% of crowded area in each of the high magnification fields. […]

[6] = tested on: rat model of acute respiratory distress syndrome; assay: western blotting / Oxyblot of lung parenchyma protein extracts; assay type: in vivo
Description: (§4) The term “protein oxidation detection kit” disclosed in the present invention refers to methods for detecting protein oxidation in cells. For example, the Oxyblot Oxidized Protein Detection Kit S7150 (Chemicon) used in the examples of the present invention detects oxidized proteins by labeling oxidized proteins in a sample with 2,4-dinitrophenylhydrazine (DNPH), separating proteins in the sample with 12% SDS polyacrylamide gel electrophoresis, transferring the separated proteins onto a transfer membrane, such as a nitrocellulose membrane, immersing the transfer membrane in buffer containing anti-DNP primary antibody (1:150) for about 2 hours, then immersing the transfer membrane in buffer containing secondary antibody (1:300) at room temperature for about an hour, and then observing expression of oxidized proteins in the sample.
as §1
The protein extracts of the left lungs of rats in each group were prepared. The same amount (10 to 30 μg) of protein extracts of rats in each group was detected by western blotting and Oxyblot Oxidized Protein Detection Kit S7150, Chemicon, respectively. The results were observed by enhanced chemiluminescence (ECL, Amersham Biosciences), and the performance of each protein was quantified by software (Labwork software, UVP).
Specifically, the procedure and conditions of western blotting were as follows: Proteins were separated by SDS gel electrophoresis with a gradient of 8-10% polyacrylamide solution. The blocking agent used was a T-TBS solution containing 5% skimmed milk powder and 0.05% Tween. Primary antibodies were against the following proteins respectively: NOX-1 (1:1500, Sigma), NOX-2 (1:750, Sigma), NOX-4 (1:1000, Abcam), or interacted with polyclonal antibodies that were against the following proteins: tumor necrosis factor α (1:1000, Cell Signaling), nuclear factor κB (1:250, Abcam), matrix metalloproteinase 9 (1:3000, Abcam), transforming growth factor β (1:1000, Abcam), Smad3 (1:500, Cell Signaling), bone morphogenetic protein-2 (1:100, Abcam), Smad 1/5 (1:500, Cell Signaling), GR (1:1000, Abcam), GPx (1:1000, Abcam), Cytochrome C (1:2000, BD), NQO 1 (NAD(P)H: quinone oxidoreductase 1; 1:1000, Abcam), Heme oxygenase-1 (1:250, Abcam), caspases 3 (1:1000, Cell Signaling), and PARP (poly (ADP-ribose) polymerase; 1:1000, Cell Signaling). Secondary antibodies conjugated to HRP enzymatic fluorescence are goat antibody against mouse IgG, goat antibody against rat IgG, or goat antibody against rabbit IgG.

[7] = tested on: rat model of acute respiratory distress syndrome; assay: right ventricular systolic pressure in rat model of acute respiratory distress syndrome; assay type: in vivo; conditions: ARDS rats; melatonin 50 mg/kg i.p. at 6th and 24th hour; mitochondria 1500 μg per rat i.v. at 6th hour
Procedure: as §3
Then, rats in each group were provided air with positive pressure ventilation (180 ml per minute) using small animal ventilators (SAR-830/A, CWE, Inc., USA) and intubation. […] Signals of right ventricular systolic pressure were measured with a pressure transducer (UFI, model 1050, CA, USA) and transmitted to bridge amplifiers (ML866 PowerLab 4/30 Data Acquisition Systems. ADlnstruments Pty Ltd., Castle Hill, NSW, Australia) to obtain the right ventricular systolic pressure of rats in each group as a reference for pulmonary hypertension. In addition, femoral artery systolic blood pressure of rats in each group was measured. The right ventricular systolic pressure and the femoral artery systolic blood pressure were analyzed by software (Labchart, ADlnstrument). […]

[8] = tested on: rat model of acute respiratory distress syndrome; assay: MPO+, CD40+, CD11b/c+ cells in BAL fluid by flow cytometry; assay type: in vivo; conditions: ARDS rats; doses of Example 5
Procedure: as §1, §2

[9] = tested on: human umbilical vein endothelial cells; assay: intracellular protein oxidation (Oxyblot) under menadione oxidative stress; assay type: cell-based; conditions: after 0.5 hours and 6 hours of treatment; mitochondria after menadione vs menadione only; menadione vs untreated
Description: as §4
Human umbilical vein endothelial cells were divided into three groups. The human umbilical vein endothelial cells of the first group remained untreated. […] Protein oxidation in each group was detected after 0.5 hours and 6 hours of treatment with a commercially available protein oxidation assay kit (Oxyblot Oxidized Protein Detection Kit S7150, Chemicon), and oxidative stress in cells of each group was further analyzed with a software (Labwork software, UVP).

SMILES: COc1ccc2[nH]cc(CCNC(C)=O)c2c1 [melatonin]
- albumin concentration in BAL fluid [1]: significantly lower than those in the second group
- mitochondrial morphology in lung tissue (size, cristae; TEM) [2]: smaller, and there are cristae in the mitochondrial inner membranes
- expression of F4/80 in lung sections [3]: significantly lower than the fourth group
- expression of heme oxygenase-1 in lung sections [3]: significantly higher then the second group
- expression of γ-H2AX in lung sections [3]: significantly lower than the fourth group
- oxygen saturation (group comparison) [4]: significantly higher than that of the fourth group
- number of alveolar sacs [5]: significantly higher than that in the second group
- oxidative stress (oxidized proteins) ([6]; Oxyblot): significantly lower than that of the second and fourth groups
- expression level of GPx ([6]; western blot): significantly higher than those of the second and fourth groups
- expression level of GR ([6]; western blot): significantly higher than those of the second and fourth groups
- expression level of Heme oxygenase-1 ([6]; western blot): significantly higher than those of the second and fourth groups
- expression level of NOX-1 ([6]; western blot): significantly lower than those of the second and fourth groups
- expression level of NOX-2 ([6]; western blot): significantly lower than those of the second and fourth groups
- expression level of NOX-4 ([6]; western blot): significantly lower than those of the second and fourth groups
- expression level of NQO 1 ([6]; western blot): significantly higher than those of the second and fourth groups
- expression level of Smad3 ([6]; western blot): significantly lower than those of the second and fourth groups
- expression level of activated PARP ([6]; western blot): significantly lower than those of the second and fourth groups
- expression level of activated caspase-3 ([6]; western blot): significantly lower than those of the second and fourth groups
- expression level of cytochrome c (cytosol) ([6]; western blot): significantly lower than those of the second and fourth groups
- expression level of matrix metalloproteinase 9 ([6]; western blot): significantly lower than those of the second and fourth groups
- expression level of nuclear factor κB ([6]; western blot): significantly lower than those of the second and fourth groups
- expression level of transforming growth factor β ([6]; western blot): significantly lower than those of the second and fourth groups
- expression level of tumor necrosis factor α ([6]; western blot): significantly lower than those of the second and fourth groups
- right ventricular systolic pressure (group comparison) [7]: significantly reduced
- number of inflammatory cells (MPO+, CD40+, CD11b/c+) in BAL fluid [8]: significantly lower than those in the second group

SMILES: CC1=CC(=O)c2ccccc2C1=O [menadione]
- protein oxidation in cells [9]: increased significantly
